From article PMC12471299, “Secondary Metabolites of the Marine Sponge-Derived Fungus Aspergillus subramanianii 1901NT-1.40.2 and Their Antimicrobial and Anticancer Activities” (Marine Drugs, 2025)
Converted amounts (≈) assume the structure as drawn. “And” between values parts separate entries of the source, which are not always exact repeats. Equal values may be shown once. Read-outs that look alike come from different tables or passages of the source.

Tests used:
[1] = tested on: E. faecalis ATCC 29212; parameters: method as in PMID 29642369; conditions: cited from earlier work
[2] = tested on: methicillin-resistant S. aureus (MRSA); parameters: method as in PMID 29642369; conditions: cited from earlier work
[3] = tested on: HT29 cells; parameters: method as in PMID 29642369; conditions: cited from earlier work
[4] = tested on: Staphylococcus aureus ATCC 21027; test: Antimicrobial assay, growth inhibition (optical density); assay type: cell-based; conditions: S. aureus, 18 h; for MIC50: Staphylococcus aureus, ATCC21027, 18 h
Procedure, shortened: (§1)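 Growth: OD 620 nm, 18 h, compound ≤100 µM; biofilm […]: MTT, OD 570 nm, 18 h. Cells pregrown on MH agar, 37 °C, 24 h. Gentamicin/amphotericin B as positive controls. Reported as MIC50 vs 1% DMSO in PBS.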

[5] = tested on: Candida albicans KMM 455; test: as above; assay type: cell-based; conditions: C. albicans, 18 h; for MIC50: Candida albicans, KMM455, 18 h
Procedure, shortened: as §1

[6] = tested on: Candida albicans KMM 455; test: Biofilm formation assay (MTT); assay type: cell-based; conditions: C. albicans, 18 h
Procedure, shortened: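 Cultures grown 24 h at 37 °C on Mueller Hinton agar; compound applied at concentrations of 100 µM and below. After 18 h, growth read at OD620 and biofilm via MTT at OD570; results expressed as percent of 1% DMSO/PBS control and given as MIC50.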

[7] = tested on: malignant glioma T98G cells; parameters: method as in PMID 29642369; conditions: cited from earlier work
[8] = tested on: MCF-7 breast cancer cells; test: Cell viability assay (MTT); assay type: cell-based, human
[9] = tested on: MDA-MB-231 breast cancer cells; test: Cell viability assay (MTT); assay type: cell-based, human
Procedure, shortened: (§2)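 Seeding/well: H9c2 3 × 10^3; MDA-MB-231, MCF-10A 5 × 10^3; HaCaT 1 × 10^4. Treatment began 24 h post-seeding; compounds ≤100 µM, 24 h or 48 h, 37 °C. Read-out MTT, % of DMSO control.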

[10] = tested on: MCF-10A breast epithelial cells; test: Cell viability assay (MTT); assay type: cell-based, human; conditions: MCF10A
Procedure, shortened: as §2

[11] = tested on: HaCaT keratinocytes; test: Cell viability assay (MTT); assay type: cell-based, human
Procedure, shortened: as §2

[12] = Cell viability assay (MTT); assay type: cell-based, human; conditions: human, read-out: Cytotoxicity IC50
Procedure, shortened: as §2

[13] = tested on: H9c2 cardiomyocytes; test: Cell viability assay (MTT); assay type: cell-based, rat
Procedure, shortened: as §2

[14] = Cell viability assay (MTT); assay type: cell-based, rat; conditions: rat, H9c2 cardiomyocytes, read-out: Cytotoxicity IC50; for IC50 at 24 h: H9c2, 24 h; for IC50 at 48 h: H9c2, 48 h
Procedure, shortened: as §2

[15] = tested on: S. aureus ATCC 29213; parameters: method as in PMID 29642369; conditions: cited from earlier work
[16] = MCF-7 breast cancer cells, MCF-7, 24 h
[17] = MCF-7 breast cancer cells, MCF-7, 48 h
[18] = MCF-10A breast epithelial cells, MCF10A, 24 h
[19] = MCF-10A breast epithelial cells, MCF10A, 48 h
[20] = MDA-MB-231 breast cancer cells, MDA-MB-231, 24 h
[21] = MDA-MB-231 breast cancer cells, MDA-MB-231, 48 h

In the case of `COC1=C(c2c[nH]c3ccccc23)C(=O)C(CC=C(C)C)=C(c2c[nH]c3ccccc23)C1=O` [Compound 6, kumbicin D], the “antibacterial activity” value [1] is given as “not active”, the “antibacterial activity” value ([2]; MRSA) is given as “not active” and the “effect on cells” value ([3]; HT29, at 100 µM) is given as “weak effects”. For the same compound, the “Growth inhibition, MIC50” value [4] was 9.38 ± 0.77 µM, the MIC50 [4] was 7 to 11 µM (≈ 3.06 to 4.8 µg/mL) and the “Growth inhibition, MIC50” value [5] was 10.44 ± 1.07 µM. For the same compound, the MIC50 [5] was 7 to 10 µM (≈ 3.06 to 4.37 µg/mL), the “Biofilm formation, MIC50” value [6] was 8.36 ± 0.95 µM and the “effect on cells” value ([7]; T98G, at 100 µM) was “weak effects”. The cell viability ([8]; MCF-7, 24 h, 1.0 µM) was 107.6 ± 6.5 % of control, the cell viability ([8]; MCF-7, 24 h, 10.0 µM) was 77.7 ± 7.5 % of control and the cell viability ([8]; MCF-7, 24 h, 100.0 µM) was 29.9 ± 0.8 % of control. The cell viability ([8]; MCF-7, 48 h, 1.0 µM) was 84.6 ± 9.4 % of control, the cell viability ([8]; MCF-7, 48 h, 10.0 µM) was 76.8 ± 3.8 % of control and the cell viability ([8]; MCF-7, 48 h, 100.0 µM) was 12.1 ± 2.7 % of control. For the same compound, the cell viability ([9]; MDA-MB-231, 24 h, 1.0 µM) was 93.6 ± 4.8 % of control, the cell viability ([9]; MDA-MB-231, 24 h, 10.0 µM) was 84.5 ± 6.7 % of control and the cell viability ([9]; MDA-MB-231, 24 h, 100.0 µM) was 32.7 ± 5.2 % of control. The cell viability ([9]; MDA-MB-231, 48 h, 1.0 µM) was 100.6 ± 2.2 % of control, the cell viability ([9]; MDA-MB-231, 48 h, 10.0 µM) was 90.8 ± 1.2 % of control and the cell viability ([9]; MDA-MB-231, 48 h, 100.0 µM) was 14.7 ± 0.6 % of control. The cell viability ([10]; 24 h, 1.0 µM) was 101.6 ± 3.1 % of control, the cell viability ([10]; 24 h, 10.0 µM) was 92.4 ± 3.6 % of control and the cell viability ([10]; 24 h, 100.0 µM) was 23.9 ± 6.2 % of control. The cell viability ([10]; 48 h, 1.0 µM) was 98.4 ± 4.5 % of control, the cell viability ([10]; 48 h, 10.0 µM) was 87.4 ± 2.7 % of control and the cell viability ([10]; 48 h, 100.0 µM) was 13.7 ± 3.2 % of control. For the same compound, the cell viability ([11]; 24 h, 1.0 µM) was 97.2 ± 5.7 % of control, the cell viability ([11]; 24 h, 10.0 µM) was 98.6 ± 3.5 % of control and the cell viability ([11]; 24 h, 100.0 µM) was 21.5 ± 3.3 % of control. The cell viability ([11]; 48 h, 1.0 µM) was 100.5 ± 3.3 % of control, the cell viability ([11]; 48 h, 10.0 µM) was 80.0 ± 0.1 % of control and the cell viability ([11]; 48 h, 100.0 µM) was 11.6 ± 3.5 % of control. The IC50 at 24 h ([12]; HaCaT keratinocytes, 24 h) was greater than 100 µM, the IC50 at 48 h ([12]; HaCaT keratinocytes, 48 h) was 49.4 ± 1.2 µM and the IC50 at 24 h [12, 16] was 62.2 ± 2.2 µM. It also gave an IC50 at 48 h [12, 17] of 47.3 ± 1.7 µM, an IC50 at 24 h [12, 18] of 65.7 ± 1.9 µM and an IC50 at 48 h [12, 19] of 55.6 ± 2.3 µM. For the same compound, the IC50 at 24 h [12, 20] was 74.4 ± 0.6 µM, the IC50 at 48 h [12, 21] was 58.2 ± 2 µM and the cell viability ([13]; H9c2, 24 h, 1.0 µM) was 104.0 ± 12.9 % of control. The cell viability ([13]; H9c2, 24 h, 10.0 µM) was 92.9 ± 6.1 % of control, the cell viability ([13]; H9c2, 24 h, 100.0 µM) was 30.9 ± 2.9 % of control and the cell viability ([13]; H9c2, 48 h, 1.0 µM) was 99.7 ± 3.7 % of control. The cell viability ([13]; H9c2, 48 h, 10.0 µM) was 88.6 ± 2.3 % of control, the cell viability ([13]; H9c2, 48 h, 100.0 µM) was 21.6 ± 2.2 % of control and the IC50 at 24 h [14] was 72.2 ± 4.1 µM. For the same compound, the IC50 at 48 h [14] was 65.4 ± 2.1 µM and the “antibacterial activity” value [15] was “not active”.
In the case of `COc1c(OC)c(-c2c[nH]c3ccc(O)cc23)c(OC)c(OC)c1-c1c[nH]c2ccccc12` [Compound 8, petromurin C], the “antibacterial activity” value [1] is given as “did not inhibit the growth”, the “effect with oxacillin” value ([2]; MRSA S. aureus 66/1, with oxacillin) is given as “synergistic effect” and the IC50 ([3]; read-out: IC50, cell viability) is given as 34.8 µM. The “Growth inhibition, MIC50” value [4] was 26.74 ± 1.98 µM, the MIC50 [4] was 26 to 52 µM (≈ 11.6 to 23.1 µg/mL) and the “Growth inhibition, MIC50” value [5] was 34.14 ± 2.1 µM. The MIC50 [5] was 26 to 52 µM (≈ 11.6 to 23.1 µg/mL), the “Biofilm formation, MIC50” value [6] was 24.12 µM and 24.12 ± 3.07 µM and the “effectiveness” value ([7]; T98G cells) was “not effective”. For the same compound, the cell viability ([8]; MCF-7, 24 h, 1.0 µM) was 105.4 ± 5.9 % of control, the cell viability ([8]; MCF-7, 24 h, 10.0 µM) was 92.8 ± 3.0 % of control and the cell viability ([8]; MCF-7, 24 h, 100.0 µM) was 53.7 ± 6.8 % of control. The cell viability ([8]; MCF-7, 48 h, 1.0 µM) was 77.7 ± 3.7 % of control, the cell viability ([8]; MCF-7, 48 h, 10.0 µM) was 70.6 ± 8.5 % of control and the cell viability ([8]; MCF-7, 48 h, 100.0 µM) was 28.6 ± 4.3 % of control. The cell viability ([9]; MDA-MB-231, 24 h, 1.0 µM) was 89.4 ± 2.4 % of control, the cell viability ([9]; MDA-MB-231, 24 h, 10.0 µM) was 103.6 ± 2.2 % of control and the cell viability ([9]; MDA-MB-231, 24 h, 100.0 µM) was 63.7 ±4.8 % of control. For the same compound, the cell viability ([9]; MDA-MB-231, 48 h, 1.0 µM) was 102.9 ± 0.5 % of control, the cell viability ([9]; MDA-MB-231, 48 h, 10.0 µM) was 89.5 ± 3.1 % of control and the cell viability ([9]; MDA-MB-231, 48 h, 100.0 µM) was 38.6 ± 1.7 % of control. The cell viability ([10]; 24 h, 1.0 µM) was 91.9 ± 9.5 % of control, the cell viability ([10]; 24 h, 10.0 µM) was 81.4 ± 1.0 % of control and the cell viability ([10]; 24 h, 100.0 µM) was 52.0 ± 4.0 % of control. For the same compound, the cell viability ([10]; 48 h, 1.0 µM) was 95.3 ± 3.4 % of control, the cell viability ([10]; 48 h, 10.0 µM) was 92.1 ± 2.1 % of control and the cell viability ([10]; 48 h, 100.0 µM) was 45.7 ± 6.6 % of control. The cell viability ([11]; 24 h, 1.0 µM) was 102.7 ± 7.7 % of control, the cell viability ([11]; 24 h, 10.0 µM) was 93.1 ± 6.9 % of control and the cell viability ([11]; 24 h, 100.0 µM) was 64.3 ± 1.9 % of control. For the same compound, the cell viability ([11]; 48 h, 1.0 µM) was 95.8 ± 1.9 % of control, the cell viability ([11]; 48 h, 10.0 µM) was 97.7 ± 1.4 % of control and the cell viability ([11]; 48 h, 100.0 µM) was 36.8 ± 7.0 % of control. For the same compound, the IC50 at 24 h ([12]; HaCaT keratinocytes, 24 h) was greater than 100 µM, the IC50 at 48 h ([12]; HaCaT keratinocytes, 48 h) was 80.5 ± 1.8 µM and the IC50 at 24 h [12, 16] was greater than 100 µM. For the same compound, the IC50 at 48 h [12, 17] was 61.5 ± 1.2 µM, the IC50 at 24 h [12, 18] was no less than 100 µM and the IC50 at 48 h [12, 19] was 91 ± 4.1 µM. For the same compound, the IC50 at 24 h [12, 20] was greater than 100 µM, the IC50 at 48 h [12, 21] was 79.9 ± 1.2 µM and the cell viability ([13]; H9c2, 24 h, 1.0 µM) was 100.9 ± 1.7 % of control. The cell viability ([13]; H9c2, 24 h, 10.0 µM) was 95.9 ± 2.3 % of control, the cell viability ([13]; H9c2, 24 h, 100.0 µM) was 57.4 ± 8.5 % of control and the cell viability ([13]; H9c2, 48 h, 1.0 µM) was 101.6 ± 2.2 % of control. For the same compound, the cell viability ([13]; H9c2, 48 h, 10.0 µM) was 79.8 ± 4.6 % of control, the cell viability ([13]; H9c2, 48 h, 100.0 µM) was 55.8 ± 5.5 % of control and the IC50 at 24 h [14] was greater than 100 µM. The IC50 at 48 h [14] was greater than 100 µM and the “antibacterial activity” value [15] was “did not inhibit the growth”.
